Tests used:
[1] = tested on: rat; conditions: Subchronic oral toxicity in rodents, sprague dawley, Gavage/Intubation, dose end: 90 day, group: systemic
[2] = tested on: mouse; conditions: Subchronic oral toxicity in rodents, b6c3f1, Feed, dose end: 13 week, group: systemic
[3] = tested on: mouse; conditions: Carcinogenicity, b6c3f1, Oral, Feed, dose end: 103 week, group: systemic
[4] = tested on: rat; conditions: Subchronic oral toxicity in rodents, fischer, Feed, dose end: 13 week, group: systemic
[5] = tested on: rat; conditions: Carcinogenicity, fischer, Oral, Feed, dose end: 103 week, group: systemic
[6] = tested on: rat; conditions: Subchronic oral toxicity in rodents, fischer, Gavage/Intubation, dose end: 16 week
[7] = tested on: rat; conditions: Carcinogenicity, fischer, Oral, Gavage/Intubation, dose end: 2 year, group: systemic
[8] = tested on: mouse; conditions: Carcinogenicity, b6c3f1, Oral, Gavage/Intubation, dose end: 2 year, group: systemic
[9] = tested on: mouse; conditions: Subchronic oral toxicity in rodents, b6c3f1, Gavage/Intubation, dose end: 16 week, group: systemic
[10] = tested on: rat; conditions: Multigenerational reproductive toxicity study; sprague dawley; Oral; Water; dose end: 1 generation; group: reproductive; reproductive / offspring survival early / litter size / litter size + reproductive / offspring survival early / live fetuses / live fetuses
[11] = tested on: mouse; conditions: Carcinogenicity, cd1, Oral, Feed, dose end: 18 month, group: systemic
[12] = tested on: rat; conditions: Combined chronic toxicity/carcinogenicity, sprague dawley, Oral, Feed, dose end: 24 month, group: systemic
[13] = tested on: rat; conditions: Subchronic oral toxicity in rodents, sprague dawley, Feed, dose end: 90 day, group: systemic
[14] = tested on: rat; conditions: Prenatal developmental toxicity study, sprague dawley, Oral, Gavage/Intubation, dose end: 15 GD
[15] = tested on: dog; conditions: Chronic toxicity, beagle, Oral, Feed, dose end: 52 week, group: systemic
[16] = tested on: mouse; conditions: Carcinogenicity, b6c3f1, Oral, Water, dose end: 96 week, group: systemic
[17] = tested on: mouse; conditions: Subchronic oral toxicity in rodents, b6c3f1, Water, dose end: 10 week, group: systemic
[18] = tested on: rat; conditions: Combined chronic toxicity/carcinogenicity; wistar; Oral; Feed; dose end: 2 year; group: systemic; systemic / in life observation / clinical signs / aggressive behavior + systemic / in life observation / clinical signs / excitation + …
[19] = tested on: dog; conditions: Chronic toxicity; beagle; Oral; Capsule; dose end: 104 PND; group: systemic; systemic / in life observation / clinical signs / [other]
[20] = tested on: mouse; conditions: Carcinogenicity; b6c3f1; Oral; Feed; dose end: 104 week; group: systemic; systemic / pathology microscopic / spleen / hematopoietic cell proliferation + systemic / pathology microscopic / stomach / hyperkeratosis
[21] = tested on: rat; conditions: Carcinogenicity; other; Oral; Feed; dose end: 78 week; group: systemic; systemic / in life observation / clinical signs / abdominogenital staining + systemic / in life observation / clinical signs / fur (altered …
[22] = tested on: mouse; conditions: Carcinogenicity, b6c3f1, Oral, Gavage/Intubation, dose end: 91 week, group: systemic
[23] = systemic / clinical chemistry / creatinine / creatinine + systemic / clinical chemistry / phosphorus / phosphorus + systemic / clinical …
[24] = systemic / in life observation / clinical signs / general pallor + systemic / in life observation / clinical signs / lethargy + systemic / …
[25] = systemic / in life observation / clinical signs / ocular discharge + systemic / in life observation / clinical signs / aggressive behavior…
[26] = systemic / pathology microscopic / kidney / karyomegaly
[27] = systemic / in life observation / body weight / body weight
[28] = systemic / in life observation / body weight / body weight + systemic / in life observation / clinical signs / [other] + systemic / in life …
[29] = systemic / in life observation / food consumption / food consumption + systemic / organ weight / liver / absolute
[30] = systemic / in life observation / body weight / body weight + systemic / in life observation / clinical signs / aggressive behavior + …
[31] = group: cholinesterase, cholinesterase / cholinesterase / cholinesterase / cholinesterase (che)
[32] = group: systemic, systemic / organ weight / kidney / absolute + systemic / organ weight / kidney / relative to body weight + systemic / organ weight / liver…
[33] = systemic / pathology microscopic / brain / degeneration + systemic / clinical chemistry / alanine aminotransferase (alt/sgpt) / alanine …
[34] = systemic / pathology microscopic / brain / degeneration + systemic / pathology microscopic / brain / necrosis + systemic / pathology …
[35] = systemic / pathology microscopic / kidney / karyomegaly + systemic / pathology microscopic / harderian gland / adenoma
[36] = systemic / pathology microscopic / kidney / cytomegaly + systemic / pathology microscopic / kidney / karyomegaly + systemic / organ weight…
[37] = systemic / pathology microscopic / nerve / degeneration + systemic / pathology microscopic / spinal cord / degeneration + systemic / …
[38] = systemic / clinical chemistry / gamma glutamyl transferase (ggt) / gamma glutamyl transferase (ggt)
[39] = systemic / pathology microscopic / spleen / hyperplasia + systemic / clinical chemistry / calcium / calcium + systemic / clinical chemistry…
[40] = group: developmental, developmental / developmental malformation / bone / enlarged fontanel + developmental / developmental malformation / bone / incomplete …
[41] = group: maternal, systemic / in life observation / body weight / body weight gain
[42] = systemic / in life observation / clinical signs / ataxia + systemic / pathology microscopic / brain / vacuolization
[43] = systemic / in life observation / clinical signs / ataxia + systemic / pathology microscopic / brain / vacuolization + systemic / in life …
[44] = systemic / organ weight / brain / relative to body weight
[45] = systemic / organ weight / brain / relative to body weight + systemic / organ weight / heart / relative to body weight + systemic / organ …
[46] = systemic / in life observation / mortality / mortality + systemic / pathology microscopic / kidney / degeneration + systemic / pathology …
[47] = systemic / pathology microscopic / adrenal gland / pheochromocytoma nos + systemic / pathology microscopic / liver / carcinoma + systemic / …
[48] = systemic / pathology microscopic / liver / carcinoma + systemic / in life observation / mortality / mortality + systemic / in life …

For `O=c1c(C2CC(c3ccc(-c4ccc(Br)cc4)cc3)Cc3ccccc32)c(O)sc2ccccc12` (stereo unspecified) [Difethialone], the LEL [1, 23] was 0.002 mg/kg/day, the NEL [1, 23] was under 0.002 mg/kg/day and the LOAEL [1, 24] was 0.008 mg/kg/day. The NOAEL [1, 24] was 0.004 mg/kg/day.

Work on `C[C@](N)(Cc1ccc(O)c(O)c1)C(=O)O.C[C@](N)(Cc1ccc(O)c(O)c1)C(=O)O.O.O.O` [Methyldopa sesquihydrate] yielded an LEL [2, 25] of 465 mg/kg/day, an NEL [2, 25] of under 465 mg/kg/day and an LOAEL [2, 26] of 1880 mg/kg/day. It also gave an NOAEL ([2]; systemic / pathology microscopic / kidney / karyomegaly + systemic / in life observation / body weight / body weight + systemic / in life …) of 945 mg/kg/day, an LOAEL [3, 27] of 830 mg/kg/day and an NOAEL [3, 27] of under 830 mg/kg/day. The LEL [3, 28] was 830 mg/kg/day, the NEL [3, 28] was under 830 mg/kg/day and the LEL [4, 29] was 155 mg/kg/day. The NEL [4, 29] was under 155 mg/kg/day, the LOAEL ([4]; systemic / pathology microscopic / kidney / regeneration + systemic / in life observation / body weight / body weight) was 625 mg/kg/day and the NOAEL ([4]; systemic / pathology microscopic / kidney / regeneration + systemic / in life observation / body weight / body weight + systemic / in life …) was 315 mg/kg/day. For the same compound, the LOAEL [5, 27] was 110 mg/kg/day, the NOAEL [5, 27] was under 110 mg/kg/day and the LEL [5, 30] was 110 mg/kg/day. For the same compound, the NEL [5, 30] was under 110 mg/kg/day.

`O=P(OCCCl)(OCCCl)OCCCl` [Tris(2-chloroethyl) phosphate] showed an LEL [6, 31] of 175 mg/kg/day, an LOAEL [6, 31] of 175 mg/kg/day and an NEL [6, 31] of 88 mg/kg/day. For the same compound, the NOAEL [6, 31] was 88 mg/kg/day, the LOAEL ([6]; group: systemic, systemic / in life observation / clinical signs / hyperactivity + systemic / pathology microscopic / brain / necrosis) was 175 mg/kg/day and the LEL [6, 32] was 44 mg/kg/day. The NEL [6, 32] was 22 mg/kg/day, the NOAEL [6, 32] was 88 mg/kg/day and the NEL [7, 33] was 44 mg/kg/day. The NOAEL [7, 33] was 44 mg/kg/day, the LEL [7, 34] was 88 mg/kg/day and the LOAEL [7, 34] was 88 mg/kg/day. It also gave an LOAEL [8, 26] of 175 mg/kg/day, an NOAEL [8, 26] of under 175 mg/kg/day and an LEL [8, 35] of 175 mg/kg/day. It also gave an NEL [8, 35] of under 175 mg/kg/day, an LEL ([9]; systemic / organ weight / liver / absolute + systemic / organ weight / liver / relative to body weight + systemic / organ weight / kidney / …) of 175 mg/kg/day and an LOAEL ([9]; systemic / pathology microscopic / kidney / cytomegaly + systemic / pathology microscopic / kidney / karyomegaly) of 700 mg/kg/day. For the same compound, the NEL [9, 36] was 88 mg/kg/day and the NOAEL [9, 36] was 350 mg/kg/day.

In the case of `Oc1ccccc1Cl` [2-Chlorophenol], the LEL [10] is reported as 25 mg/kg/day, the LOAEL [10] is reported as over 25 mg/kg/day and the NEL [10] is reported as 2.5 mg/kg/day. It also gave an NOAEL [10] of at least 25 mg/kg/day.

`Cc1cc(C)nc(NC(=O)NS(=O)(=O)c2ccccc2C(=O)OC2COC2)n1` [Oxasulfuron] gave an LOAEL ([11]; systemic / pathology microscopic / nerve / degeneration + systemic / pathology microscopic / spinal cord / degeneration) of 99.1 mg/kg/day, an LEL ([11]; systemic / pathology microscopic / nerve / degeneration + systemic / pathology microscopic / spinal cord / degeneration + systemic / organ …) of 99.1 mg/kg/day and an NEL [11, 37] of 1.5 mg/kg/day. For the same compound, the NOAEL [11, 37] was 1.5 mg/kg/day, the LEL [12, 38] was 0.84 mg/kg/day and the LOAEL [12, 38] was 83 mg/kg/day. For the same compound, the NEL [12, 38] was under 0.84 mg/kg/day, the NOAEL ([12]; systemic / clinical chemistry / gamma glutamyl transferase (ggt) / gamma glutamyl transferase (ggt) + systemic / pathology microscopic / …) was 8.3 mg/kg/day and the LEL ([13]; systemic / clinical chemistry / chloride / chloride + systemic / clinical chemistry / cholesterol / cholesterol) was 15.3 mg/kg/day. The LOAEL ([13]; systemic / pathology microscopic / spleen / hyperplasia) was 316 mg/kg/day, the NEL [13, 39] was 0.62 mg/kg/day and the NOAEL [13, 39] was 15.3 mg/kg/day. It also gave an LEL [14, 40] of 1000 mg/kg/day, an LOAEL [14, 40] of 1000 mg/kg/day and an NEL [14, 40] of 300 mg/kg/day. The NOAEL [14, 40] was 300 mg/kg/day, the LEL [14, 41] was 1000 mg/kg/day and the LOAEL [14, 41] was 1000 mg/kg/day. It also gave an NEL [14, 41] of 300 mg/kg/day, an NOAEL [14, 41] of 300 mg/kg/day and an LEL [15, 42] of 10.7 mg/kg/day. The LOAEL [15, 42] was 10.7 mg/kg/day, the NEL [15, 43] was 1.3 mg/kg/day and the NOAEL [15, 43] was 1.3 mg/kg/day.

`O=C1O[C@H]([C@H](O)CO)C([O-])=C1O.[Na+]` [Sodium erythorbate (1:1)] was tested, and the LEL [16, 44] was 1670 mg/kg/day, the NEL [16, 44] was under 1670 mg/kg/day and the LOAEL [16, 45] was over 6670 mg/kg/day. The NOAEL [16, 45] was at least 6670 mg/kg/day, the NEL ([17]; systemic / in life observation / body weight / body weight gain + systemic / in life observation / mortality / mortality + systemic / …) was 3330 mg/kg/day and the LEL ([17]; systemic / in life observation / body weight / body weight gain + systemic / pathology microscopic / kidney / degeneration + systemic / …) was 6670 mg/kg/day. It also gave an LOAEL [17, 46] of over 13300 mg/kg/day and an NOAEL [17, 46] of at least 13300 mg/kg/day.

Work on `Cc1ccc(N=CN(C)C=Nc2ccc(C)cc2C)c(C)c1` [Amitraz] yielded an LEL [18] of 3.13 mg/kg/day, an LOAEL [18] of 3.13 mg/kg/day and an NEL [18] of 0.97 mg/kg/day. It also gave an NOAEL [18] of 0.97 mg/kg/day, an LEL [19] of 1 mg/kg/day and an LOAEL [19] of 1 mg/kg/day. It also gave an NEL [19] of 0.25 mg/kg/day, an NOAEL [19] of 0.25 mg/kg/day and an LEL [20] of 2.31 mg/kg/day. It also gave an LOAEL [20] of 2.31 mg/kg/day, an NEL [20] of under 2.31 mg/kg/day and an NOAEL [20] of under 2.31 mg/kg/day.

Work on `ClCC(Cl)Cl` [1,1,2-Trichloroethane] yielded an LEL [21] of 46 mg/kg/day, an LOAEL [21] of over 92 mg/kg/day and an NEL [21] of under 46 mg/kg/day. For the same compound, the NOAEL [21] was at least 92 mg/kg/day, the LOAEL [22, 47] was over 390 mg/kg/day and the NOAEL [22, 47] was at least 390 mg/kg/day. For the same compound, the LEL [22, 48] was 195 mg/kg/day and the NEL [22, 48] was under 195 mg/kg/day.

Reference: EPA's ToxRefDB 2
